Test results: patent US20110165145A1, “IGF-II/IGF-IIE BINDING PROTEINS” (priority 2008, published 2011)

Assays:
[1] = tested on: human breast cancer cells; conditions: immunodeficient mice; cited from earlier work
[2] = tested on: human SKUT-1 myosarcoma cell; assay: Cisplatin (CDDP)-induced cytotoxicity in SKUT-1 cells (CellTitreBlue); format: cell-based; conditions: 20% FCS, 48 hours
IGF-II [3] = target: T1, IGF-II (Homo sapiens, UniProt P01344); assay: SPR assays of DX-2647 binding to IGF-II complexed with receptors/IGFBPs
T1 construct: IGF-II (amino acids 1-67)
Text: (§1) While the IGF-IR and IR-A are the principal mediators of the biological activity of IGF-II, the protein can bind with high affinity to a number of other proteins that include a family of six serum IGF-binding proteins (IGFBP 1-6), and the cell-surface mannose-6-phosphate receptor (IGF-IIR).

[4] = tested on: autocrine IGF-II induced IGF-1R phosphorylation in Hep3B cells; assay: Autocrine (endogenous) IGF-II induced IGF-1R phosphorylation in Hep3B cells (IP/WB); format: cell-based; conditions: 10 nM, 48 h serum free
Procedure: Hep3B cells synthesize and secrete IGF-II which in turn binds IGF-1R and induces IGF-1R phosphorylation in an autocrine fashion. The autocrine IGF-II induced IGF-1R phosphorylation can be detected by IP/WB analysis after 48 h serum starvation of cells. […] To perform the experiments, Hep3B cells were seeded and cultured for 24 h. […] After being washed twice with ice-cold PBS containing 1 mM sodium orthovanadate, cells were lysed and immunoprecipitated with anti-IGF-IR antibody. Immunoprecipitated proteins were resolved in a 4-12% Bis-tris gel, and transferred to a PVDF membrane. The membrane was probed with anti-phospho-IGF-IR (p-IGF-1R) antibody first, and then stripped and re-probed with anti-IGF-IR antibody for detection of total IGF-1R proteins.

Colo205 cells = assay: Colo205 cell proliferation in complete medium containing 10% FBS; format: cell-based; conditions: 2 μM, 4 days
Procedure: The plate was placed in a 37° C. incubator with 5% CO2 for 4 days. Proliferation was measured by CellTiter 96Aqueous One Solution Reagent (Promega). […] Colo205 cells have two cell populations in culture vessels.

[5] = tested on: IGF-I induced IGF-IR phosphorylation; assay: IGF-I induced IGF-IR phosphorylation in Hep3B cells (IP/WB); format: cell-based; conditions: 10 nM DX-2647
Procedure: (§2) After being washed twice with ice-cold PBS containing 1 mM sodium orthovanadate, cells were lysed and immunoprecipitated with anti-IGF-IR antibody. Immunoprecipitated proteins were resolved in a 4-12% Bis-tris gel, and transferred to a PVDF membrane. The membrane was probed with anti-phospho-IGF-IR (p-IGF-1R) antibody first, and then stripped and re-probed with anti-IGF-IR antibody for detection of total IGF-1R proteins.

Hep3B cells = assay: Hep3B anchorage dependent colony formation assay; format: cell-based; conditions: two concentrations; 10% FBS; 1 week
Text: Colonies>50 cells were scored in three independent experiments, each with triplicate dishes.

IGF-IIE [6] = target: T2, IGF-IIE (Homo sapiens, UniProt P01344); assay: SPR affinity of DX-2647 (IgG captured on anti-human Fc chip), IGF-IIE; conditions: 1:1 binding model
T2 construct: the construct comprising amino acids 1-104, which encompass the E domain

[7] = tested on: IGF-IR phosphorylation in Colo205 cells; assay: IGF-IR phosphorylation in Colo205 cells; format: cell-based
Text: Upon ligand binding, IGF-1R undergoes autophosphorylation on tyrosine residues of the two β-subunits.

IGF-II [8] = target: T1, IGF-II; assay: SPR affinity of DX-2647 (IgG captured on anti-human Fc chip), IGF-II; conditions: 1:1 binding model
[9] = tested on: IGF-II-induced IGF-1R phosphorylation in Hep3B cells; assay: IGF-II-induced IGF-1R phosphorylation in Hep3B cells (IP/WB); format: cell-based
Procedure: as §2

IGF-I = IGF-I (Homo sapiens, UniProt P05019); assay: SPR affinity of DX-2647, IGF-I; conditions: 1:1 binding model
Text: IGF-II and the related growth factor, IGF-I, share 70% homology at the amino acid level.

[10] = tested on: IGF-II-induced IGF-1R phosphorylation in HepG2 cells; assay: IGF-II-induced IGF-1R phosphorylation in HepG2 cells (IP/WB); format: cell-based; conditions: 10 min
Procedure: as §2

HepG2 cells = assay: HepG2 anchorage dependent colony formation; format: cell-based; conditions: 1 nM; 10% FBS; 7 days
Procedure: HepG2 cells were seeded into a 6-well plate at 1000 cells/well in 2 ml of culture medium containing 10% FBS. […] Isotype control IgG (Ctrl. IgG) was used at 100 nM. After incubation cells were fixed and stained with crystal violet blue. Five pictures were taken randomly from each well and data were analyzed using the MetaMorph software. The results are summarized graphically in FIG. 10.

[11] = tested on: HepG2 human hepatoma cells; assay: HepG2 anchorage-independent colony formation in soft agar; format: cell-based; conditions: 10% FCS, two weeks
Procedure: Cells were seeded in growth medium plus 10% FCS in soft agar in the presence of increasing concentrations of antibody. Colonies>50 cells were counted after two weeks. […]

IGF-IIE [12] = target: T2, IGF-IIE; assay: SPR assays of DX-2647 binding to IGF-IIE complexed with receptors/IGFBPs; conditions: FIGS. 5A and 5B
Text: as §1

[13] = tested on: IGF-II induced Colo205 cell proliferation; assay: IGF-II induced Colo205 cell proliferation in serum free medium; format: cell-based; conditions: 2 nM IGF-II, 96 h
Procedure: In this experiment, cells were cultured in serum free medium containing 2 nM IGF-II. […] Neutralizing IGF-II antibody (R&D Systems) was used at 333 nM as a positive control. […] IGF-II neutralizing antibody from R&D at 333 nM was used as a positive control. The plate was placed in a 37° C. incubator with 5% CO2 for 4 days. Proliferation was measured by CellTiter 96Aqueous One Solution Reagent (Promega).

T2 sequence (P01344 25-128): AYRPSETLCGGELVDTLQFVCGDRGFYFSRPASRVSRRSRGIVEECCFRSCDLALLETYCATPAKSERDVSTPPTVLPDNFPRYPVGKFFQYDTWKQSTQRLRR
T1 sequence (P01344 25-91): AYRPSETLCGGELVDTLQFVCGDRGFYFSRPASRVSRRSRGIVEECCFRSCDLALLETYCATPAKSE
Sequence of IGF-I (P05019 49-118 limits assumed, species assumed): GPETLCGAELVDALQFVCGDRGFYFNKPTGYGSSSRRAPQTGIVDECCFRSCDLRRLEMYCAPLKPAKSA

Substance: pegvisomant: PEGylated analog of human growth hormone, 191 amino acid residues, acting as GH receptor antagonist
- growth of human breast cancer cells grown as xenografts [1]: inhibits the growth

Substance: DX-2647: IGF II/IGF IIE inhibitory antibody germlined from 566A-M0064-F02 parental clone; SEQ ID NO: 59 and 60
- enhancement of cisplatin (CDDP)-induced cellular cytotoxicity [2]: potently enhanced
- ability to bind IGF-II complexed with the IGFBPs assayed (IGF-II [3]; FIGS. 5A and 5B): inhibited
- blocking of IGF-II binding to all three cell-surface receptors for IGF-II (IGF-II [3]; FIGS. 5A and 5B): blocks the binding
- binding to IGFBP-1 alone (IGF-II [3]; Fc-captured antibody, FIG. 5A): does not bind
- binding to free IGF-II (IGF-II [3]; Fc-captured antibody, FIG. 5A): binds free IGF-II
- binding to pre-formed complex of IGF-II and IGFBP-1 (IGF-II [3]; Fc-captured antibody, FIG. 5A): does not bind
- inhibition of autocrine IGF-II induced IGF-1R phosphorylation [4]: significant inhibitory effect
- inhibition of Colo205 proliferation in complete growth medium (Colo205 cells): significantly inhibited
- inhibition of IGF-I induced IGF-IR phosphorylation [5]: failed to show significant inhibition
- inhibition of colony formation of Hep3B cells (Hep3B cells): inhibited colony formation in a dose-dependent manner
- ka IGF-IIE (IGF-IIE [6]): 2.06 E6 M-1s-1
- kd IGF-IIE (IGF-IIE [6]): less than 2 E-5 s-1
- effective concentration for inhibition of IGF-IR phosphorylation [7]: 10 nM
- ka IGF-II (IGF-II [8]): 1.06 E6 M-1s-1
- kd IGF-II (IGF-II [8]): 2.38 E-5 s-1
- inhibition of IGF-II-induced IGF-1R phosphorylation ([9]; 0.1 nM DX-2647): partial inhibition
- inhibition of IGF-II-induced IGF-1R phosphorylation ([9]; 1 nM DX-2647): complete inhibition
- ka IGF-I (IGF-I): 5.8e+06 M⁻¹ s⁻¹
- kd IGF-I (IGF-I): 0.1 s⁻¹
- inhibition of IGF-II-induced IGF-1R phosphorylation ([10]; 0.3 nM DX-2647, IGF-II 2.6 nM): Partial inhibition
- inhibition of IGF-II-induced IGF-1R phosphorylation ([10]; 3 nM DX-2647, IGF-II 2.6 nM): complete inhibition
- inhibition of colony-forming ability of HepG2 cells (HepG2 cells): significantly inhibited
- inhibition of HepG2 colony formation in soft agar [11]: strongly inhibited
- IC50 ([11]; ±0.74 standard error, read-out: mean IC50, anchorage-independent growth of HepG2 cells): 1.5 nM
- ability to bind IGF-IIE complexed with the IGFBPs assayed (IGF-IIE [12]): inhibited
- blocking of IGF-IIE binding to all three cell-surface receptors for IGF-II (IGF-IIE [12]): blocks the binding
- inhibition of IGF-II induced Colo205 cell proliferation [13]: inhibited
- lowest concentration showing maximum potency in inhibiting IGF-II stimulated Colo205 proliferation ([13]; 1 nM to 100 nM tested): 10 nM
